Data from US20200392239A1, “USE OF A MULTIMERIC ANTI-DR5 BINDING MOLECULE IN COMBINATION WITH A CHEMOTHERAPEUTIC AGENT FOR TREATING CANCER” (IGM Biosciences, Inc., priority 2018, published 2020).

Tests used:
[1] = reason for not progressing in clinical development; cited from earlier work
HCT15 tumor cells = assay: HCT15 tumor model in athymic nude mice (IgG resistant colon tumor model); assay type: in vivo; conditions: 3 mg/kg IgM 5 times daily i.v.; compared with 3 mg/kg anti-DR5 IgG and 80 mg/kg Irinotecan
Procedure: Combination therapy with an anti-DR5 IgM antibody and standard of care Irinotecan was assessed in an HCT15 tumor model as follows.
In the first experiment, anti-DR5 IgG, anti-DR5 IgM, and Irinotecan monotherapies were compared. Athymic nude mice were subcutaneously implanted with 1×10^7 HCT15 tumor cells.
When the tumors reached 150-200 mm^3, the animals were dosed intravenously with either vehicle 5 times daily, 3 mg/kg of anti-DR5 IgM 5 times daily, 80 mg/kg of Irinotecan (Sigma I1406) 3 times within the first week, or the combined anti-DR5 IgM and Irinotecan dosing regimens.

For `CN(C)CC[C@H](CSc1ccccc1)Nc1ccc(S(=O)(=O)NC(=O)c2ccc(N3CCN(Cc4ccccc4-c4ccc(Cl)cc4)CC3)cc2)cc1[N+](=O)[O-]` [ABT-737, 4-{4-[(4′-Chloro-2-biphenylyl)methyl]-1-piperazinyl}-N-[(4-{[(2R)-4-(dimethylamino)-1-(phenylsulfanyl)-2-butanyl]amino}-3-nitrophenyl)sulfonyl]benzamide], the bioavailability [1] is given as “low” and the solubility [1] is given as “low”.

For `CC1(C)CCC(c2ccc(Cl)cc2)=C(CN2CCN(c3ccc(C(=O)NS(=O)(=O)c4ccc(N[C@H](CCN5CCOCC5)CSc5ccccc5)c(S(=O)(=O)C(F)(F)F)c4)cc3)CC2)C1` [ABT-263, 4-(4-{[2-(4-Chlorophenyl)-5,5-dimethyl-1-cyclohexen-1-yl]methyl}-1-piperazinyl)-N-[(4-{[(2R)-4-(4-morpholinyl)-1-(phenylsulfany)-2-butanyl]amino}-3-[(trifluoromethyl)sulfonyl]phenyl)sulfonyl]benzamide], the side effects [1] is given as “dose-limiting side effects”.

B1: anti-DR5 IgM Mab #2: anti-DR5 IgM comprising VH and VL SEQ ID NO: 5 and SEQ ID NO: 6, constructed as in US 2018-0009897 (antibody, V domains shown)
VH: QVQLQESGPGLVKPSQTLSLTCTVSGGSISSGDYFWSWIRQLPGKGLECIGHIHNSGTTYYNPSLKSRVTISVDTSKKQFSLRLSSVTAADTAVYYCARDRGGDYYYGMDVWGQGTTVTVSS
VL: EIVLTQSPGTLSLSPGERATLSCRASQGISRSYLAWYQQKPGQAPSLLIYGASSRATGIPDRFSGSGSGTDFTLTISRLEPEDFAVYYCQQFGSSPWTFGQGTKVEIK
modifications: IgM constant regions
In the case of B1, the “efficacy of monotherapies (tumor volume, overall survival)” value (HCT15 tumor cells) is reported as “most effective”.
